System: P12-Ichikawa
Experiment: cell viability relative to DMSO control; higher = less cytotoxic
Conditions: 48 h
Summary of the method: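 Library compounds in DMSO were pin-dosed into 1536-well plates (5 μl) holding NOMO1 or SEM (500 cells/well) or P12-Ichikawa (1000 cells/well) leukemia cells, across an 11-point threefold series of 47 μM to 0.79 nM. Each cell line had been adapted for at least four passages in each medium. CellTiter-Glo One luminescence was read after 48 h at 37°C. Viability is the per-plate percentage relative to DMSO wells, with cell-free wells as background.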

[1] = HPLM + 10% dialyzed FBS, 0.000781 µM
[2] = HPLM + 10% dialyzed FBS, 0.00234 µM
[3] = HPLM + 10% dialyzed FBS, 0.00702 µM
[4] = HPLM + 10% dialyzed FBS, 0.0211 µM
[5] = HPLM + 10% dialyzed FBS, 0.0632 µM
[6] = HPLM + 10% dialyzed FBS, 0.19 µM
[7] = HPLM + 10% dialyzed FBS, 0.569 µM
[8] = HPLM + 10% dialyzed FBS, 1.71 µM
[9] = HPLM + 10% dialyzed FBS, 5.12 µM
[10] = HPLM + 10% dialyzed FBS, 15.4 µM
[11] = HPLM + 10% dialyzed FBS, 46.1 µM
[12] = RPMI 5 mM glucose + 10% FBS, 0.000781 µM
[13] = RPMI 5 mM glucose + 10% FBS, 0.00234 µM
[14] = RPMI 5 mM glucose + 10% FBS, 0.00702 µM
[15] = RPMI 5 mM glucose + 10% FBS, 0.0211 µM
[16] = RPMI 5 mM glucose + 10% FBS, 0.0632 µM
[17] = RPMI 5 mM glucose + 10% FBS, 0.19 µM
[18] = RPMI 5 mM glucose + 10% FBS, 0.569 µM
[19] = RPMI 5 mM glucose + 10% FBS, 1.71 µM
[20] = RPMI 5 mM glucose + 10% FBS, 5.12 µM
[21] = RPMI 5 mM glucose + 10% FBS, 15.4 µM
[22] = RPMI 5 mM glucose + 10% FBS, 46.1 µM
[23] = RPMI 5 mM glucose + 10% dialyzed FBS, 0.000781 µM
[24] = RPMI 5 mM glucose + 10% dialyzed FBS, 0.00234 µM
[25] = RPMI 5 mM glucose + 10% dialyzed FBS, 0.00702 µM
[26] = RPMI 5 mM glucose + 10% dialyzed FBS, 0.0211 µM
[27] = RPMI 5 mM glucose + 10% dialyzed FBS, 0.0632 µM
[28] = RPMI 5 mM glucose + 10% dialyzed FBS, 0.19 µM
[29] = RPMI 5 mM glucose + 10% dialyzed FBS, 0.569 µM
[30] = RPMI 5 mM glucose + 10% dialyzed FBS, 1.71 µM
[31] = RPMI 5 mM glucose + 10% dialyzed FBS, 5.12 µM
[32] = RPMI 5 mM glucose + 10% dialyzed FBS, 15.4 µM
[33] = RPMI 5 mM glucose + 10% dialyzed FBS, 46.1 µM

| Structure (SMILES) | cell viability [1] | cell viability [2] | cell viability [3] | cell viability [4] | cell viability [5] | cell viability [6] | cell viability [7] | cell viability [8] | cell viability [9] | cell viability [10] | cell viability [11] | cell viability [12] | cell viability [13] | cell viability [14] | cell viability [15] | cell viability [16] | cell viability [17] | cell viability [18] | cell viability [19] | cell viability [20] | cell viability [21] | cell viability [22] | cell viability [23] | cell viability [24] | cell viability [25] | cell viability [26] | cell viability [27] | cell viability [28] | cell viability [29] | cell viability [30] | cell viability [31] | cell viability [32] | cell viability [33] |
| --- | --- | --- | --- | --- | --- | --- | --- | --- | --- | --- | --- | --- | --- | --- | --- | --- | --- | --- | --- | --- | --- | --- | --- | --- | --- | --- | --- | --- | --- | --- | --- | --- | --- |
| CNC(=O)c1ccc(N2C(=S)N(c3ccc(C#N)c(C(F)(F)F)c3)C(=O)C2(C)C)cc1F | 98.8% | 106% | 79.6% | 110% | 123% | 117% | 115% | 124% | 114% | 108% | 107% | 107% | 119% | 72% | 109% | 123% | 117% | 122% | 120% | 124% | 116% | 98.5% | 102% | 113% | 80.4% | 108% | 120% | 117% | 119% | 122% | 122% | 112% | 91.1% |
| CCCOc1ccc2[nH]c(NC(=O)OC)nc2c1 | 125% | 122% | 107% | 99.4% | 54.5% | 35.3% | 17.2% | 21.8% | 25.3% | 18.8% | 23.2% | – | – | – | – | – | – | – | – | – | – | – | – | – | – | – | – | – | – | – | – | – | – |
| CO[C@@H]1[C@@H](OC(N)=O)[C@@H](O)[C@H](OC2=CC=C3\C(=C(NC(=O)C4=CC=C([O-])C(=C4)CC=C(C)C)/C(=O)OC3=C2C)O)OC1(C)C | 118% | 108% | 119% | 115% | 111% | 106% | 110% | 104% | 102% | 100% | 100% | 107% | 108% | 124% | 110% | 114% | 110% | 113% | 110% | 108% | 94.2% | 97.8% | 109% | 105% | 109% | 110% | 105% | 106% | 108% | 109% | 98% | 98.5% | 88.3% |
| CCOC(CN1C(=O)[C@](CC(=O)Nc2ccc(C)cc2)(NC(=O)Nc2ccc(C)cc2)c2ccccc21)OCC | 103% | 105% | 109% | 111% | 105% | 109% | 115% | 108% | 111% | 111% | 19.8% | 102% | 107% | 101% | 108% | 105% | 105% | 105% | 117% | 101% | 106% | 34.8% | 100% | 104% | 93.7% | 107% | 102% | 104% | 116% | 96.3% | 102% | 98% | 37.6% |
